Assays:
[1] = system: human pancreatic cancer cell SW1990; assay: Proliferation of SW1990 cells, MTT assay; assay type: cell-based; conditions: SW1990, 120 h, 5 days treatment, read-out: IC50 (inhibition of proliferation of SW1990)
Protocol: Newly revived SW1990 cells (purchased from Shanghai Fuheng Biology) were cultured and passaged for at least three generations before use. Cells were used at about 90% confluency for experiments. Cells were digested with trypsinase and centrifuged at 800 rpm for 5 minutes. The cell pellets were resuspended in fresh DMEM medium and cells were counted. Cells were seeded on 96-well cell culture plates at 5000 cells/well and incubated overnight at 37° C., 5% CO2. The stock solutions of the test substances (including the test compounds and the reference compound) were serially diluted to 8 concentrations with DMSO at a ratio of 1:3. 5 μL of each serially diluted solutions was added to 120 μL of medium (diluted by 25 times) and mixed by shaking. […] The cell culture plates were returned to incubator at 37° C. and 5% CO2 for 5 days. At the end of the treatment the cell viability was determined by MTT colorimetric assay. Cell culture medium in each well was replaced by 100 μL/well of serum-free fresh medium containing MTT (0.5 mg/mL), and the culture was continued for additional 4 hours. Medium was then discarded and 100 μL/well of DMSO was added.
Data was analyzed by GraphPad Prism 6.0. The inhibitory effects of compounds on cell proliferation were plotted based on cell viability vs. the logarithm of compound concentration. Cell viability %=(ODcompound−ODbackground)/(ODDMSO−ODbackground)×100.

[2] = system: human colon cancer cell LoVo; assay: Proliferation of LoVo cells, MTT assay; assay type: cell-based; conditions: 96 h, 4 days treatment, read-out: IC50 (inhibition of proliferation of LoVo)
CHK1 kinase = molecular target: T1, CHK1 kinase (Homo sapiens, UniProt O14757); assay: CHK1 kinase inhibition, ADP-Glo kinase assay; assay type: biochemical; conditions: ATP 10 μM, CHK1 1 ng/well; for IC50: read-out: IC50 (inhibitory effect on CHK1 kinase activity); for inhibition at 0.01 µM: compound concentration 10 nM, read-out: Inh % (inhibitory effect on CHK1 kinase activity)
T1 construct: purchased Promega V1941
T1 sequence (O14757 1-476): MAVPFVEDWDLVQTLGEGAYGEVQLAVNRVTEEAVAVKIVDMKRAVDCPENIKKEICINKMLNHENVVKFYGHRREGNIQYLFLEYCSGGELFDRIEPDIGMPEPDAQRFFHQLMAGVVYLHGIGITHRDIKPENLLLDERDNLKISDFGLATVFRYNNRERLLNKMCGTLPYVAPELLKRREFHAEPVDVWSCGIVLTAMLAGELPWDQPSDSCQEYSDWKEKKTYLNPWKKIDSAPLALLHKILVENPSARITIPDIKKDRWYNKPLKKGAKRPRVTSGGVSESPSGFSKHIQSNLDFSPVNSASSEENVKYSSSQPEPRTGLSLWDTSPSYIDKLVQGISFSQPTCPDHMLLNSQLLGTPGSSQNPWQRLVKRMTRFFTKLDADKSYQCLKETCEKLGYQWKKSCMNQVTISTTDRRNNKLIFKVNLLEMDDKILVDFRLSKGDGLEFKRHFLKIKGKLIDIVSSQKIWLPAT

[3] = system: human breast cancer cell HCC1806; assay: Proliferation of HCC1806 cells, MTT assay; assay type: cell-based; conditions: HCC1806, 72 h, 3 days treatment, read-out: IC50 (inhibition of proliferation of HCC1806)

Structure (SMILES) | IC50 [1] | IC50 [2] | IC50 (CHK1 kinase) | inhibition at 0.01 µM (CHK1 kinase) | IC50 [3]
COc1cccc(OC[C@@H]2CNCCO2)c1-c1cc(Nc2cnc(C#N)cn2)n[nH]1 [Example 1, (S)-5-((5-(2-methoxy-6-(morpholin-2-ylmethoxy)phenyl)-1H-pyrazol-3-yl)amino)pyrazine-2-carbonitrile] | 6.3 nM | 15.5 nM | 0.84 nM | 95% | 7.4 nM
COc1cccc(OC[C@@H]2CNCCO2)c1-c1cc(Nc2cnc(C(F)(F)F)cn2)n[nH]1 [Example 5, (S)—N-(5-(2-methoxy-6-(morpholin-2-ylmethoxy)phenyl)-1H-pyrazol-3-yl)-5-(trifluoromethyl)pyrazin-2-amine] | 287 nM |  |  | 50% | 394 nM
COc1cccc(OC[C@H]2CCCNC2)c1-c1cc(Nc2cnc(C#N)cn2)n[nH]1 [Example 9, (S)-5-((5-(2-methoxy-6-(piperidin-3-ylmethoxy)phenyl)-1H-pyrazol-3-yl)amino)pyrazine-2-carbonitrile] | 1.2 nM | 4.4 nM | 0.97 nM | 92% | 1.2 nM
COc1cccc(OCC2CCNCC2)c1-c1cc(Nc2cnc(C#N)cn2)n[nH]1 [Example 12, 5-((5-(2-methoxy-6-(piperidin-4-ylmethoxy)phenyl)-1H-pyrazol-3-yl)amino)pyrazine-2-carbonitrile] | 10.1 nM |  | 0.72 nM |  | 13.9 nM
COc1cccc(OC[C@H]2CCNC2)c1-c1cc(Nc2cnc(C#N)cn2)n[nH]1 [Example 13, (S)-5-((5-(2-methoxy-6-(pyrrolidin-3-ylmethoxy)phenyl)-1H-pyrazol-3-yl)amino)pyrazine-2-carbonitrile] | 1.9 nM |  | 0.45 nM |  | 2.1 nM
COc1cc(F)cc(OC[C@@H]2CNCCO2)c1-c1cc(Nc2cnc(C#N)cn2)n[nH]1 [Example 14, (S)-5-((5-(4-fluoro-2-methoxy-6-(morpholin-2-ylmethoxy)phenyl)-1H-pyrazol-3-yl)amino)pyrazine-2-carbonitrile] | 6.1 nM | 19.2 nM | 0.69 nM | 94% | 12 nM
COc1c(Cl)ccc(OC[C@@H]2CNCCO2)c1-c1cc(Nc2cnc(C#N)cn2)n[nH]1 [Example 15, (S)-5-((5-(3-chloro-2-methoxy-6-(morpholin-2-ylmethoxy)phenyl)-1H-pyrazol-3-yl)amino)pyrazine-2-carbonitrile] | 809 nM |  |  | 40% | > 1000 nM
COc1cc(Cl)cc(OC[C@@H]2CNCCO2)c1-c1cc(Nc2cnc(C#N)cn2)n[nH]1 [Example 16, (S)-5-((5-(4-chloro-2-methoxy-6-(morpholin-2-ylmethoxy)phenyl)-1H-pyrazol-3-yl)amino)pyrazine-2-carbonitrile] | 11.8 nM |  |  | 93% | 11.8 nM
COc1ccc(Cl)c(OC[C@@H]2CNCCO2)c1-c1cc(Nc2cnc(C#N)cn2)n[nH]1 [Example 17, (S)-5-((5-(3-chloro-6-methoxy-2-(morpholin-2-ylmethoxy)phenyl)-1H-pyrazol-3-yl)amino)pyrazine-2-carbonitrile] | 615 nM |  |  | 50% | 895 nM
COc1cc(Br)cc(OC[C@@H]2CNCCO2)c1-c1cc(Nc2cnc(C#N)cn2)n[nH]1 [Example 18, (S)-5-((5-(4-bromo-2-methoxy-6-(morpholin-2-ylmethoxy)phenyl)-1H-pyrazol-3-yl)amino)pyrazine-2-carbonitrile] | 19.6 nM |  |  | 79% | 39.2 nM
COc1cccc(OC2CCNCC2)c1-c1cc(Nc2cnc(C#N)cn2)n[nH]1 [Example 30, 5-((5-(2-methoxy-6-(piperidin-4-yloxy)phenyl)-1H-pyrazol-3-yl)amino)pyrazine-2-carbonitrile] | 19.1 nM |  |  | 89% | 31.7 nM

Reference: US12492197B2, “3,5-disubstituted pyrazole compounds as kinase inhibitors and uses thereof” (IMPACT THERAPEUTICS (SHANGHAI), INC, priority 2019, dated 2025)
